For four compounds, mutagenic call results are on record in PubChem BioAssay AID1259407 (Chemical Carcinogenesis Research Information System (CCRIS), 2018).

The source made the active and inactive calls. No rule for the calls is given here.

This series deals with CCRIS mutagenicity, Ames/micronucleus/aberration tests. Description: CCRIS mutagenicity studies.
[1] abbreviates: Test System: AMES SALMONELLA TYPHIMURIUM, Strain/Indicator: TA1535, Metabolic Activation: NONE, Method: PREINCUBATION

In the case of `Nc1cccc2nc3ccccc3cc12`, the mutagenic call under setting [1] is “inactive; negative”; the mutagenic call (Test System: AMES SALMONELLA TYPHIMURIUM, Strain/Indicator: TA1535, Metabolic Activation: RAT, LIVER, S-9, TETRACHLOROBIPHENYL, Method: PREINCUBATION) is “inactive; negative”; the mutagenic call (Test System: AMES SALMONELLA TYPHIMURIUM, Strain/Indicator: TA1537, Metabolic Activation: NONE, Method: PREINCUBATION) was “active; positive”; the mutagenic call (Test System: AMES SALMONELLA TYPHIMURIUM, Strain/Indicator: TA1537, Metabolic Activation: RAT, LIVER, S-9, TETRACHLOROBIPHENYL, Method: PREINCUBATION) was “active; positive”; the mutagenic call (Test System: AMES SALMONELLA TYPHIMURIUM, Strain/Indicator: TA1538, Metabolic Activation: NONE, Method: PREINCUBATION) is “inactive; negative”; the mutagenic call (Test System: AMES SALMONELLA TYPHIMURIUM, Strain/Indicator: TA1538, Metabolic Activation: RAT, LIVER, S-9, TETRACHLOROBIPHENYL, Method: PREINCUBATION) is “active; positive”. For the same compound, the mutagenic call was “active; positive” (Test System: AMES SALMONELLA TYPHIMURIUM, Strain/Indicator: TA1977, Metabolic Activation: NONE, Method: PREINCUBATION); “active; positive” (Test System: AMES SALMONELLA TYPHIMURIUM, Strain/Indicator: TA1977, Metabolic Activation: RAT, LIVER, S-9, TETRACHLOROBIPHENYL, Method: PREINCUBATION); “inactive; negative” (Test System: AMES SALMONELLA TYPHIMURIUM, Strain/Indicator: TA1978, Metabolic Activation: RAT, LIVER, S-9, TETRACHLOROBIPHENYL, Method: PREINCUBATION).

On to `Nc1nc(NO)c2ncn([C@@H]3O[C@H](CO)[C@@H](O)[C@H]3O)c2n1`, for which the mutagenic call by setting is: (Test System: AMES SALMONELLA TYPHIMURIUM, Strain/Indicator: TA100(TN5-1,8-DNP1011), Metabolic Activation: NONE, Method: STANDARD PLATE) “active; positive”; (Test System: AMES SALMONELLA TYPHIMURIUM, Strain/Indicator: TA100(TN5-1,8-DNP1012), Metabolic Activation: NONE, Method: STANDARD PLATE) “active; positive”; (Test System: AMES SALMONELLA TYPHIMURIUM, Strain/Indicator: TA100, Metabolic Activation: NONE, Method: STANDARD PLATE) “active; positive”.

For the compound `N#C/C=C/C#N`, the mutagenic call (End Point: IN VITRO CHROMOSOMAL ABERRATIONS, Test System: CHO-LB CELLS, Metabolic Activation: NONE) was “active; positive”; the mutagenic call (End Point: IN VITRO CHROMOSOMAL ABERRATIONS, Test System: CHO-LB CELLS, Metabolic Activation: RAT, LIVER, S-9, AROCLOR 1254) is “inactive; negative”; the mutagenic call (Test System: AMES SALMONELLA TYPHIMURIUM, Strain/Indicator: TA97, Metabolic Activation: HAMSTER, LIVER, S-9, AROCLOR 1254 (10%), Method: PREINCUBATION) is “inactive; negative”; the mutagenic call (Test System: AMES SALMONELLA TYPHIMURIUM, Strain/Indicator: TA97, Metabolic Activation: HAMSTER, LIVER, S-9, AROCLOR 1254 (30%), Method: PREINCUBATION) was “inactive; negative”; the mutagenic call (Test System: AMES SALMONELLA TYPHIMURIUM, Strain/Indicator: TA97, Metabolic Activation: NONE, Method: PREINCUBATION) is “inactive; negative”; the mutagenic call (Test System: AMES SALMONELLA TYPHIMURIUM, Strain/Indicator: TA97, Metabolic Activation: RAT, LIVER, S-9, AROCLOR 1254 (10 OR 30%), Method: PREINCUBATION) is “inactive; negative”. Also, the mutagenic call is, setting by setting: (Test System: AMES SALMONELLA TYPHIMURIUM, Strain/Indicator: TA98, Metabolic Activation: HAMSTER, LIVER, S-9, AROCLOR 1254 (10%), Method: PREINCUBATION) “inactive; negative”; (Test System: AMES SALMONELLA TYPHIMURIUM, Strain/Indicator: TA98, Metabolic Activation: HAMSTER, LIVER, S-9, AROCLOR 1254 (30%), Method: PREINCUBATION) “inactive; negative”; (Test System: AMES SALMONELLA TYPHIMURIUM, Strain/Indicator: TA98, Metabolic Activation: NONE, Method: PREINCUBATION) “inactive; negative”; (Test System: AMES SALMONELLA TYPHIMURIUM, Strain/Indicator: TA98, Metabolic Activation: RAT, LIVER, S-9, AROCLOR 1254 (10%), Method: PREINCUBATION) “inactive; negative”; (Test System: AMES SALMONELLA TYPHIMURIUM, Strain/Indicator: TA98, Metabolic Activation: RAT, LIVER, S-9, AROCLOR 1254 (30%), Method: PREINCUBATION) “inactive; negative”; (Test System: AMES SALMONELLA TYPHIMURIUM, Strain/Indicator: TA98, Metabolic Activation: RAT, LIVER, S-9, FUMARONITRILE (AUTOINDUCTION), Method: PREINCUBATION) “inactive; negative”. Besides, the mutagenic call by setting is: (Test System: AMES SALMONELLA TYPHIMURIUM, Strain/Indicator: TA98, Metabolic Activation: RAT, LIVER, S-9, PHENOBARBITAL, Method: PREINCUBATION) “inactive; negative”; (Test System: AMES SALMONELLA TYPHIMURIUM, Strain/Indicator: TA100, Metabolic Activation: HAMSTER, LIVER, S-9, AROCLOR 1254 (10%), Method: PREINCUBATION) “inactive; negative”; (Test System: AMES SALMONELLA TYPHIMURIUM, Strain/Indicator: TA100, Metabolic Activation: HAMSTER, LIVER, S-9, AROCLOR 1254 (30%), Method: PREINCUBATION) “inactive; negative”; (Test System: AMES SALMONELLA TYPHIMURIUM, Strain/Indicator: TA100, Metabolic Activation: NONE, Method: PREINCUBATION) “inactive; negative”; (Test System: AMES SALMONELLA TYPHIMURIUM, Strain/Indicator: TA100, Metabolic Activation: RAT, LIVER, S-9, AROCLOR 1254 (10%), Method: PREINCUBATION) “inactive; negative”; (Test System: AMES SALMONELLA TYPHIMURIUM, Strain/Indicator: TA100, Metabolic Activation: RAT, LIVER, S-9, AROCLOR 1254 (30%), Method: PREINCUBATION) “inactive; negative”. Further, the mutagenic call is “inactive; negative” (Test System: AMES SALMONELLA TYPHIMURIUM, Strain/Indicator: TA100, Metabolic Activation: RAT, LIVER, S-9, FUMARONITRILE (AUTOINDUCTION), Method: PREINCUBATION); “inactive; negative” (Test System: AMES SALMONELLA TYPHIMURIUM, Strain/Indicator: TA100, Metabolic Activation: RAT, LIVER, S-9, PHENOBARBITAL, Method: PREINCUBATION); “inactive; negative” (Test System: AMES SALMONELLA TYPHIMURIUM, Strain/Indicator: TA1535, Metabolic Activation: HAMSTER, LIVER, S-9, AROCLOR 1254 (10%), Method: PREINCUBATION); “inactive; negative” (Test System: AMES SALMONELLA TYPHIMURIUM, Strain/Indicator: TA1535, Metabolic Activation: HAMSTER, LIVER, S-9, AROCLOR 1254 (30%), Method: PREINCUBATION); “inactive; negative” under setting [1]; “inactive; negative” (Test System: AMES SALMONELLA TYPHIMURIUM, Strain/Indicator: TA1535, Metabolic Activation: RAT, LIVER, S-9, AROCLOR 1254 (10 OR 30%), Method: PREINCUBATION).

As to `C=C1N(C)c2ccccc2C1(C)C`, the mutagenic call (Test System: MOUSE LYMPHOMA, Strain/Indicator: L5178Y (TK+/TK-), Metabolic Activation: NONE, Method: SUSPENSION/PLATE) was “inactive; negative. reevaluation of results: negative”; the mutagenic call (Test System: MOUSE LYMPHOMA, Strain/Indicator: L5178Y (TK+/TK-), Metabolic Activation: RAT, LIVER, S-9, AROCLOR 1254, Method: SUSPENSION/PLATE) is “active; positive. reevaluation of results: positive”; the mutagenic call (Test System: Mouse lymphoma, Strain/Indicator: L5178Y (tk+/tk-), Metabolic Activation: None, Method: Suspension/plate) is “inactive; negative”; the mutagenic call (Test System: Mouse lymphoma, Strain/Indicator: L5178Y (tk+/tk-), Metabolic Activation: Rat, Liver, S-9, Aroclor 1254, Method: Suspension/plate) is “active; positive”.
